Laboratory results published in patent US20240115654A1, “INTRAVENOUS ADMINISTRATION OF ENGINEERED ANTIMICROBIAL AMPHIPHILIC PEPTIDES” (priority 2021, published 2024).
Converted amounts (≈) assume the structure as drawn. Read-outs that look alike come from different tables or passages of the source.

Assays:
[1] = test system: Enterobacter spp. isolates (Enterobacter aerogenes and E. cloacae, n = 102); test: organism not typed; settings: for % R (percent of isolates resistant): CLSI breakpoints, colistin EUCAST; for MIC: read-out: Mode (MIC)
Protocol: (§1) Comparator antibiotics were supplied by Micromyx, and stock solutions were prepared on the first day of testing using solvents recommended by CLSI (1). Stock solutions of all compounds were made at 40× the final testing concentration and stored at −80° C. prior to testing. Information regarding compound source, catalog and lot number, testing concentrations and drug diluent for the comparators and test agent are detailed below in Table 3.
(§2) The test organisms evaluated in this study consisted of clinical isolates from the Micromyx Repository and reference isolates from the American Type Culture Collection (ATCC; Manassas, VA). The clinical isolates were obtained from USA hospitals. Upon initial receipt at Micromyx, the organisms were sub-cultured onto an appropriate agar medium. Following incubation, colonies were harvested from these plates and cell suspensions prepared and frozen at −80° C. with a cryoprotectant. Prior to testing, the isolates were streaked from frozen vials onto Trypticase Soy Agar with 5% sheep blood (Becton Dickenson [BD]; Sparks, MD; Lot Nos. 7173618, 7166759, 7208688, 72144895, 7228505 and Remel Lenexa, KS Lot No. 212574). Plates were incubated at 35° C. overnight.
(§3) Mueller Hinton II broth (MHB II; BD; Lot Nos. 6258541 and 7143896) was used for MIC testing of aerobic organisms.
(§4) MIC values were determined using a broth microdilution procedure described by CLSI (1, 3). Automated liquid handlers (Multidrop 384, Labsystems, Helsinki, Finland; Biomek 2000 and Biomek FX, Beckman Coulter, Fullerton CA) were used to conduct serial dilutions and liquid transfers.
(§5) To prepare the drug mother plates, which would provide the serial drug dilutions for the replicate daughter plates, the wells of columns 2-12 of standard 96-well microdilution plates (Costar 3795) were filled with 150 μl of the designated diluent for each row of drug. The test articles and comparator compounds (300 μl at 40× the highest concentration to be tested) were dispensed into the appropriate wells in column 1. The Biomek 2000 was then used to make 2-fold serial dilutions in the mother plates from column 1 through column 11. The wells of Column 12 contained no drug and served as the organism growth control wells for the assay.
(§6) The daughter plates were loaded with 185 μL per well of MHB II using the Multidrop 384. The daughter plates were completed on the Biomek FX instrument which transferred 5 μL of drug solution from each well of a mother plate to the corresponding well of each daughter plate in a single step. A standardized inoculum of each test organism was prepared per CLSI methods (1). The inoculum for each organism was dispensed into sterile reservoirs divided by length (Beckman Coulter), and the Biomek 2000 was used to inoculate the plates. Daughter plates were placed on the Biomek 2000 work surface in reverse orientation so that inoculation took place from low to high drug concentration.
(§7) Plates were stacked 3-4 high, covered with a lid on the top plate, placed in plastic bags, and incubated at 35° C. for 16 to 20 hrs. Following incubation, the microplates were removed from the incubator and viewed from the bottom using a plate viewer. […] The MIC was read and recorded as the lowest concentration of drug that inhibited visible growth of the organism.
(§8) Clinical breakpoints to determine percent resistance within a given organism group were obtained from CLSI (3), with the exception of colistin for K. pneumoniae, Enterobacter spp., and E. coli, which are only available from EUCAST.

[2] = test system: Escherichia coli isolates (n = 101); settings: Escherichia coli (n = 101); CLSI breakpoints, colistin EUCAST
Protocol: as §1, §2, §3, §4, §5, §6, §7, §8

[3] = test system: Pseudomonas aeruginosa isolates (n = 109); settings: Pseudomonas aeruginosa (n = 109); CLSI breakpoints
Protocol: as §1, §2, §3, §4, §5, §6, §7, §8

[4] = test system: Acinetobacter spp. isolates (n = 104); settings: Acinetobacter spp. (n = 104); CLSI breakpoints
Protocol: as §1, §2, §3, §4, §5, §6, §7, §8

[5] = test system: Klebsiella pneumoniae isolates (n = 101)
Protocol: as §1, §2, §3, §4, §5, §6, §7, §8

[6] = test system: Staphylococcus aureus isolates (n = 104); test: microbe, parasite or virus in culture; settings: for % R (percent of isolates resistant): CLSI breakpoints
Protocol: as §1, §2, §3, §4, §5, §6, §7, §8

[7] = test system: Enterococcus faecium isolates (n = 104); test: microbe, parasite or virus in culture; settings: for MIC: read-out: Mode (MIC); for % R (percent of isolates resistant): CLSI breakpoints
Protocol: as §1
as §2, with “Prior to testing, the isolates were streaked from frozen vials onto Trypticase Soy Agar with 5% sheep blood (Becton Dickenson [BD]; Sparks, MD; Lot Nos. 7173618, 7166759, 7208688, 72144895, 7228505 and Remel Lenexa, KS Lot No. 212574).” left out
MIC values were determined using a broth microdilution procedure described by CLSI (1, 3).
The test articles and comparator compounds (300 μl at 40× the highest concentration to be tested) were dispensed into the appropriate wells in column 1. The Biomek 2000 was then used to make 2-fold serial dilutions in the mother plates from column 1 through column 11. The wells of Column 12 contained no drug and served as the organism growth control wells for the assay.
as §6, with “The” for “The daughter plates were loaded with 185 μL per well of MHB II using the Multidrop 384. The”
as §7, §8

[8] = Klebsiella pneumoniae (n = 101), CLSI breakpoints, colistin EUCAST
[9] = Staphylococcus aureus (n = 104), all methicillin-resistant
[10] = Staphylococcus aureus (n = 104)

SMILES	MIC50 [1] [µg/mL]	MIC90 [1] [µg/mL]	% R (percent of isolates resistant) ([1]; Enterobacter spp. (n = 102)) [%]	MIC [1] [µg/mL]	% R (percent of isolates resistant) [2] [%]	% R (percent of isolates resistant) [3] [%]	% R (percent of isolates resistant) [4] [%]	% R (percent of isolates resistant) [5]	% R (percent of isolates resistant) [5, 8] [%]	% R (percent of isolates resistant) [6, 10] [%]	MIC50 ([7]; Enterococcus faecium) [µg/mL]	MIC90 ([7]; Enterococcus faecium) [µg/mL]	MIC ([7]; Enterococcus faecium) [µg/mL]	MIC range [6, 9] [µg/mL]	% R (percent of isolates resistant) ([7]; Enterococcus faecium (n = 104)) [%]	also measured
CC(C)(O/N=C(\C(=O)N[C@@H]1C(=O)N2C(C(=O)[O-])=C(C[n+]3ccccc3)CS[C@H]12)c1csc(N)n1)C(=O)O [Ceftazidime]	1 (≈ 1.83 µM)	> 32	36.3	> 32	33.6	14.6	61.5	Over 80%	80.2							
CCC[C@@H]1C[C@@H](C(=O)N[C@@H]([C@H]2O[C@H](SC)[C@H](O)[C@@H](O)[C@H]2O)[C@H](C)Cl)N(C)C1 [Clindamycin]										37.5	> 16	> 16	> 16			MIC90 [6, 9]: >16 µg/mL
C[C@H]1c2cccc(O)c2C(=O)C2=C(O)[C@]3(O)C(=O)C(C(N)=O)=C(O)[C@@H](N(C)C)[C@@H]3[C@@H](O)[C@@H]21 [Doxycycline]										0	4 (≈ 9 µM)	16 (≈ 36 µM)	0.12 (≈ 0.27 µM)	0.06 to 8	25	
C[C@H]1COc2c(N3CCN(C)CC3)c(F)cc3c(=O)c(C(=O)O)cn1c23 [Levofloxacin]	0.06 (≈ 0.166 µM)	0.5 (≈ 1.38 µM)	4.9	0.03 (≈ 0.083 µM)	46.5	21.1	66.3	over 60%	67.3	82.7	> 8	> 8	> 8			MIC90 [6, 9]: >8 µg/mL; % R (percent of isolates resistant) ([6]; Staphylococcus aureus (n = 104), listed as levofloxacin): Over 80%
CC(=O)NC[C@H]1CN(c2ccc(N3CCOCC3)c(F)c2)C(=O)O1 [Linezolid]										1.9	2 (≈ 5.93 µM)	4 (≈ 11.9 µM)	2 (≈ 5.93 µM)	1 to 8	3.8	MIC range ([7]; Enterococcus faecium (n = 104)): 1 to 32 µg/mL; MIC range ([7]; Enterococcus faecium (n = 104), listed as linezolid): 1 to 32 µg/mL
NC[C@H]1O[C@H](O[C@H]2[C@H](O)[C@@H](O[C@H]3O[C@H](CO)[C@@H](O)[C@H](N)[C@H]3O)[C@H](N)C[C@@H]2N)[C@H](N)C[C@@H]1O [Tobramycin]	0.5 (≈ 1.07 µM)	1 (≈ 2.14 µM)	3.9	0.5 (≈ 1.07 µM)	21.7	7.4	49.0	over 60%	59.4							MIC range ([1]; Enterobacter spp. (n = 102)): 0.12 to 64 µg/mL
CN[C@H](CC(C)C)C(=O)N[C@H]1C(=O)N[C@@H](CC(N)=O)C(=O)N[C@H]2C(=O)N[C@H]3C(=O)N[C@H](C(=O)N[C@H](C(=O)O)c4cc(O)cc(O)c4-c4cc3ccc4O)[C@H](O)c3ccc(c(Cl)c3)Oc3cc2cc(c3O[C@@H]2O[C@H](CO)[C@@H](O)[C@H](O)[C@H]2O[C@H]2C[C@](C)(N)[C@H](O)[C@H](C)O2)Oc2ccc(cc2Cl)[C@H]1O [Vancomycin]										0	1 (≈ 0.69 µM)	> 32	> 32	0.5 to 2	47.1	MIC50 ([6]; Staphylococcus aureus): 1 µg/mL (≈ 0.69 µM); MIC90 ([6]; Staphylococcus aureus): 1 µg/mL (≈ 0.69 µM); MIC ([6]; Staphylococcus aureus, read-out: Mode (MIC)): 1 µg/mL (≈ 0.69 µM); MIC90 ([7]; Enterococcus faecium (n = 104)): >32 µg/mL
